Patent US7531671B2, “Dihydroisoindolones as allosteric modulators of glucokinase” (Janssen Pharmaceutica N.V., priority 2005, dated 2009)
Where “and” joins values, the source holds several entries; their conditions need not be identical. Identical values can stand only once.

Columns and labels:
[1] = biological target: T1, human liver Glucokinase (GK) (Homo sapiens, UniProt P35557); assay: Glucokinase enzyme assay, Liver GK data; type: biochemical; settings: for EC50: concentration producing 50% activation above vehicle control; for EC100%: concentration producing 100% activation above vehicle control
T1 construct: (His)6; made in house; host or cells: Escherichia coli
T1 sequence (P35557 1-466 isoform P35557-2): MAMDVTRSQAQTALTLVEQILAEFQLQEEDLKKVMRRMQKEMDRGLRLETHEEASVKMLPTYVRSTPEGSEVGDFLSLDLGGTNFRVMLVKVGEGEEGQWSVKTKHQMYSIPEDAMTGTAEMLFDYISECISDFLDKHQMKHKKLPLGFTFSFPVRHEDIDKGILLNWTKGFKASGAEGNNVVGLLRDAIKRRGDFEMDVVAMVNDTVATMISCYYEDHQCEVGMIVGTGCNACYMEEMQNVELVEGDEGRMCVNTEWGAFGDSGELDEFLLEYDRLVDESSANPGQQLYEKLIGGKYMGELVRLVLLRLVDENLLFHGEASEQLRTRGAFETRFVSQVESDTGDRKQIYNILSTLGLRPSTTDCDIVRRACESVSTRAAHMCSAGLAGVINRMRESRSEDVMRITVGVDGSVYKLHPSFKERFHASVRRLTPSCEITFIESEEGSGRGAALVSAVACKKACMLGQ
Source text: (§1) An enzymatic Glucokinase (GK) assay using purified recombinant human liver/pancreas enzyme was used to evaluate the effects of potential small molecule modulators.
(§2) In this assay, GK catalyzes glucose phosphorylation in the presence of ATP. The product of this reaction, glucose-6-phosphate, was then oxidized by an excess of glucose-6-phosphate dehydrogenase to produce gluconate-6-phosphate with concomitant reduction of nicotinamide adenine dinucleotide (NAD). […] Human GK (Liver/Pancreas) was expressed in Escherichia coli as a (His) 6-tagged fusion protein and was purified by metal chelate affinity chromatography. The assay was performed in a final incubation volume of 80 μl in a 96-well clear low UV absorption plates. The incubation mixture consisted of 25 mM HEPES, 2 mM MgSO4, 1 mM dithiothreotol (DTT), 1 mg/ml bovine serum albumin (BSA), 1 mM ATP, 1 mM NAD, and 12 mM glucose, 10 units per ml glucose-6-phosphate dehydrogenase, and +/−300 ng per ml GK. For determination of the affinity (Km) and Vmax, different concentrations of glucose ranging from 0.5 mM to 40 mM were used in the assay; see Grimsby, J., Sarabu, R.; Grippo, J. F.; et. al. Science 2003, 301, 370-373. Production of reduced NAD (Nicotinamide Adenine Dinucleotide) was measured as changes in absorption at 340 nm in 96-well plate reader (Envision model # 2101 Multilabel Plate reader). % Activation @ 50 μM was calculated as the percentage increase in GK activity above the vehicle control with the effective concentration of the compound being 50 μM. EC50% (μM) was calculated as the effective concentration of the compound that produces 50% activation above the vehicle control, and EC100% (μM) was calculated as the effective concentration of the compound that produces 100% activation above the vehicle control.

[2] = biological target: T2, human pancreas Glucokinase (GK) (Homo sapiens, UniProt P35557); assay: Glucokinase enzyme assay, Pancreas GK data; type: biochemical; settings: for activation at 50 µM: compound 50 μM, percentage increase in GK activity above vehicle control, 12 mM glucose; for EC50: concentration producing 50% activation above vehicle control; for EC100%: concentration producing 100% activation above vehicle control
T2 construct: (His)6; made in house; host or cells: Escherichia coli
T2 sequence (P35557 1-465): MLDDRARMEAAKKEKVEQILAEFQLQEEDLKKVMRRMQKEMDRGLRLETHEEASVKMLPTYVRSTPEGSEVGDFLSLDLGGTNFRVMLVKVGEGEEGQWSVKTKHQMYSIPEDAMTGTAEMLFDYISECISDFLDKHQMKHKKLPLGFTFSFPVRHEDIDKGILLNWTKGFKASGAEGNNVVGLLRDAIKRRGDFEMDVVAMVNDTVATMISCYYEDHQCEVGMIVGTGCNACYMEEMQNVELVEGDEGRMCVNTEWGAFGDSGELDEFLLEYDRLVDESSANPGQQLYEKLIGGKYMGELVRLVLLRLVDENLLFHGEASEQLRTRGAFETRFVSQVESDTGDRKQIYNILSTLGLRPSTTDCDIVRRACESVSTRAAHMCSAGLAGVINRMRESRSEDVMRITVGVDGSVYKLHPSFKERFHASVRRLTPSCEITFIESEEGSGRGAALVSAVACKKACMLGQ
Source text: as §1, §2

[3] = compound 50 μM, percentage increase in GK activity above vehicle control, 12 mM glucose

Compound	EC50 [1]	activation at 50 µM [1, 3] [%]	activation at 50 µM [2] [%]	EC50 [2] [µM]	also measured
O=C(CSC1c2ccccc2C(=O)N1Cc1cccs1)Nc1nccs1 (centres unmarked) [Compound 14, 2-(3-Oxo-2-thiophen-2-ylmethyl-2,3-dihydro-1H-isoindol-1-ylsulfanyl)-N-thiazol-2-yl-acetamide]	5 µM				EC100% [1]: 19.4 µM
O=C(CSC1c2ccccc2C(=O)N1Cc1cccs1)Nc1ncccn1 (centres unmarked) [Compound 16, 2-(3-Oxo-2-thiophen-2-ylmethyl-2,3-dihydro-1H-isoindol-1-ylsulfanyl)-N-pyrimidin-2-yl-acetamide]		13			
O=C(CSC1c2ccccc2C(=O)N1Cc1ccccc1)Nc1ccc(C(=O)O)cn1 (centres unmarked) [Compound 19, 6-[2-(2-Benzyl-3-oxo-2,3-dihydro-1H-isoindol-1-ylsulfanyl)-acetyamino]-nicotinic acid]	3.2 µM	146			
O=C(COC1c2ccccc2C(=O)N1Cc1ccccc1)Nc1ccccn1 (centres unmarked) [Compound 23, 2-(2-Benzyl-3-oxo-2,3-dihydro-1H-isoindol-1-yloxy)-N-pyridin-2-yl-acetamide]	1.76 µM	164			EC100% [1]: 8.71 µM
O=C(CNC1c2ccccc2C(=O)N1Cc1ccccc1)Nc1ccccn1 (centres unmarked) [Compound 27, 2-(2-Benzyl-3-oxo-2,3-dihydro-1H-isoindol-1-ylamine)-N-pyridin-2-yl-acetamide]	1.8 µM and 0.9 µM				% Activation @ 50 μM [1, 3]: 228%; EC100% [1]: 4.5 µM and 2.6 µM
O=C(COC1c2ccccc2C(=O)N1Cc1ccccc1)Nc1nccs1 (centres unmarked) [Compound 28, 2-(2-Benzyl-3-oxo-2,3-dihydro-1H-isoindol-1-yloxy)-N-thiazol-2-yl-acetamide]	11.3 µM	73			
COc1ccc(CN2C(=O)c3ccccc3C2SCC(=O)Nc2nccs2)cc1 (centres unmarked) [Compound 29, 2-[2-(4-Methoxybenzyl)-3-oxo-2,3-dihydro-1H-isoindol-1-ylsulfanyl]-N-thiazol-2-yl-acetamide]	4.4 µM	156			EC100% [1]: 17.6 µM
O=C(CSC1c2ccccc2C(=O)N1Cc1ccc(Cl)cc1)Nc1nccs1 (centres unmarked) [Compound 30, 2-[2-(4-Chlorobenzyl)-3-oxo-2,3-dihydro-1H-isoindol-1-ylsulfanyl]-N-thiazol-2-yl-acetamide]	9.5 µM	102			
O=C(CSC1c2ccccc2C(=O)N1Cc1cccs1)Nc1cnccn1 (centres unmarked) [Compound 31, 2-(3-Oxo-2-thiophen-2-ylmethyl-2,3-dihydro-1H-isoindol-1-ylsulfanyl)-N-pyrazin-2-yl-acetamide]	4 µM	199			EC100% [1]: 12 µM
O=C(CSC1c2ccccc2C(=O)N1Cc1ccco1)Nc1nccs1 (centres unmarked) [Compound 32, 2-(2-Furan-2-ylmethyl-3-oxo-2,3-dihydro-1H-isoindol-1-ylsulfanyl)-N-thiazol-2-yl-acetamide]	9.2 µM	113			
CN(C)c1ccc(CN2C(=O)c3ccccc3C2SCC(=O)Nc2nccs2)cc1 (centres unmarked) [Compound 33, 2-[2-(4-Dimethylaminobenzyl)-3-oxo-2,3-dihydro-1H-isoindol-1-ylsulfanyl]-N-thiazol-2-yl-acetamide]	2.6 µM	229			
COC(=O)c1ccc(NC(=O)CSC2c3ccccc3C(=O)N2Cc2cccs2)nc1 (centres unmarked) [Compound 34, 6-[2-(3-Oxo-2-thiophen-2-ylmethyl-2,3-dihydro-1H-isoindol-1-ylsulfanyl)-acetylamino]-nicotinic acid methyl ester]	1 µM	180			EC100% [1]: 4.1 µM
COC(=O)c1ccc(NC(=O)CSC2c3ccccc3C(=O)N2Cc2ccccc2)nc1 (centres unmarked) [Compound 35, 6-[2-(2-Benzyl-3-oxo-2,3-dihydro-1H-isoindol-1-ylsulfanyl)-acetylamino]-nicotinic acid methyl ester]		171			EC100% [1]: 2.9 µM and 3.0 µM
CCOC(=O)Cc1csc(NC(=O)CSC2c3ccccc3C(=O)N2Cc2cccs2)n1 (centres unmarked) [Compound 36, {2-[2-(3-Oxo-2-thiophen-2-ylmethyl-2,3-dihydro-1H-isoindol-1-ylsulfanyl)-acetylamino]-thiazol-4-yl}-acetic acid ethyl ester]	9 µM	143			
CN(C)c1ccc(CN2C(=O)c3cccc(F)c3C2SCC(=O)Nc2ccccn2)cc1 (centres unmarked) [Compound 51, 2-[2-(4-Dimethylaminobenzyl)-7-fluoro-3-oxo-2,3-dihydro-1H-isoindol-1-ylsulfanyl]-N-pyridin-2-yl-acetamide]			161	0.36	EC100% [2]: 1.7 µM
COc1ccc(CN2C(=O)c3cccc(F)c3C2SCC(=O)Nc2ccccn2)cc1OC (centres unmarked) [Compound 52, 2-[2-(3,4-Dimethoxybenzyl)-7-fluoro-3-oxo-2,3-dihydro-1H-isoindol-1-ylsulfanyl]-N-pyridin-2-yl-acetamide]					EC100% [2]: 0.056 µM and 0.066 µM
CCCCN1C(=O)c2ccccc2C1OCC(=O)Nc1nccs1 (centres unmarked) [Compound 53, 2-(2-Butyl-3-oxo-2,3-dihydro-1H-isoindol-1-yloxy)-N-thiazol-2-yl-acetamide]			101	18.3	
O=C(CSC1c2ccccc2C(=O)N1Cc1ccc(F)cc1)Nc1ccc(C(=O)O)cn1 (centres unmarked) [Compound 54, 6-{2-[2-(4-Fluorobenzyl)-3-oxo-2,3-dihydro-1H-isoindol-1-ylsulfanyl]-acetylamino}-nicotinic acid]			358	1.1	EC100% [2]: 6.1 µM
COc1ccc(CN2C(=O)c3ccccc3C2SCC(=O)Nc2ccc(C(=O)O)cn2)cc1 (centres unmarked) [Compound 55, 6-{2-[2-(4-Methoxybenzyl)-3-oxo-2,3-dihydro-1H-isoindol-1-ylsulfanyl]-acetylamino}-nicotinic acid]			246	1.35	EC100% [2]: 3.4 µM
COc1ccc(CN2C(=O)c3ccccc3C2SCC(=O)Nc2ccc(C(=O)O)cn2)cc1OC (centres unmarked) [Compound 56, 6-{2-[2-(3,4-Dimethoxybenzyl)-3-oxo-2,3-dihydro-1H-isoindol-1-ylsulfanyl]-acetylamino}-nicotinic acid]			219	0.85	EC100% [2]: 2.7 µM
COc1ccc(CN2C(=O)c3c(F)ccc(F)c3C2SCC(=O)Nc2ccc(C(=O)O)cn2)cc1OC (centres unmarked) [Compound 57, 6-{2-[2-(3,4-Dimethoxybenzyl)-4,7-difluoro-3-oxo-2,3-dihydro-1H-isoindol-1-ylsulfanyl]-acetylamino}-nicotinic acid]			258	0.13	EC100% [2]: 0.4 µM
Cc1ccc2c(c1)C(OCC(=O)Nc1cnccn1)N(Cc1ccccc1)C2=O (centres unmarked) [Compound 58, 2-(2-Benzyl-6-methyl-3-oxo-2,3-dihydro-1H-isoindol-1-yloxy)-N-pyrazin-2-yl-acetamide]			70	27	
COC(=O)c1ccc(NC(=O)COC2c3cc(C)ccc3C(=O)N2Cc2ccccc2)nc1 (centres unmarked) [Compound 59]			127	3.3	EC100% [2]: 20.58 µM
Cc1ccc2c(c1)C(OCC(=O)Nc1nccs1)N(Cc1ccccc1)C2=O (centres unmarked) [Compound 60, 2-(2-Benzyl-6-methyl-3-oxo-2,3-dihydro-1H-isoindol-1-yloxy)-N-thiazol-2-yl-acetamide]			102	7.6	
Cc1ccc2c(c1)C(OCC(=O)Nc1ccccn1)N(Cc1ccccc1)C2=O (centres unmarked) [Compound 61, 2-(2-Benzyl-6-methyl-3-oxo-2,3-dihydro-1H-isoindol-1-yloxy)-N-pyridin-2-yl-acetamide]			8.4	26	
